Experimental data: patent US9593154B2, “Engineered polypeptides having enhanced duration of action” (AMYLIN PHARMACEUTICALS, LLC, priority 2010, dated 2017)

How the values were obtained:
[1] = system: renal cortical tubular epithelial cells; assay: Kidney vacuolization histopathology; format: in vivo, mouse; details: C57BL6 female mice, sc injection days 0-6, sacrifice day 7
Description: With some drugs, such as some pegylated proteins, undesirable vacuoles can form in cytoplasm of epithelial cells lining the proximal convoluted tubules, which is an undesirable toxicity measure. […] C57BL6 female mice (n=2 cages, 3 mice/cage) were weighed daily 3 hours prior to lights out. Immediately after weighing, on days 0-6 mice were injected subcutaneously with test compound. Mice were sacrificed on day 7 and kidneys submitted for histopathology. […] A positive control compound known to cause vacuole formation was scored as 3. The ABD polypeptide itself scored 0. Cmpd 15 scored 0.

ob/ob mice = assay: Effect on body weight, glucose and HbA1c in ob/ob mice after single sc dose; format: in vivo, mouse; details: non-fasted male ob/ob mice; Cmpd 15 at 250 nmol/kg sc on day 0
Description: The time course of the effect of Cmpd 15 on body weight, glucose and HbA1c in ob/ob mice was investigated post dose. […] Changes in glucose (% pre-treatment) and in HbA1c (% pre-treatment) are depicted in FIGS. 5B-5C. Points represent mean±s.d. (standard deviation). Cmpd 15 was injected sc on day=0 immediately following baseline sample collection in non-fasted male ob/ob mice. Unless indicated otherwise, blood glucose measures described herein employed a OneTouch® Ultra® device (LifeScan, Inc. Miliptas, Calif.).

[2] = Stability in human plasma; format: in vitro ADME; details: 10 μg/ml in human plasma, 37 degrees C, 5 hours; normalized to a standard (100%)
diabetic ob/ob mice = assay: Chronic exposure in diabetic ob/ob mice (twice weekly, 28 days); format: in vivo, mouse
Description: The time course of the effect of the test compound on body weight, glucose lowering and HbA1c lowering in ob/ob mice was investigated post dose, with values at 4 weeks presented in FIGS. 11A, 11B, 11C and 11D. […] Points represent mean±s.d. (standard deviation). Each test compound was injected IP on day=0 immediately following baseline sample collection in non-fasted male ob/ob mice. The effects observed for the 25 nmol/kg biw (twice weekly) dose was greater than that observed for exendin-4 given at ˜7.2 nmol/kg/d by continuous infusion (CSI), a dose known to provide a maximal efficacy for exendin-4. […] Unless indicated otherwise, blood glucose measures described herein employed a OneTouch® Ultra® device (LifeScan, Inc. Miliptas, Calif.).

[3] = Pharmacokinetic profile after subcutaneous dosing in normal HSD rats; format: in vivo, rat; details: 25 nmol/kg single dose
Description: Blood was collected via tail bleed at t=1 hour, 3 hours, 6 hours, 24 hours, 48 hours, 72 hours, 96 hours and 168 hours from fed HSD male rats. Food and body weights were measured daily. […] Points represent mean±sd.

db/db mice = assay: Oral delivery (gavage) in diabetic db/db mice, blood glucose; details: PBS/propylene glycol (50:50)
NIH/Swiss female mice = assay: OGTT DOA (oral glucose tolerance test for duration of action); format: in vivo, mouse; details: for % Glucose Lowering Compared to Vehicle: 25 nmol/kg IP at t=-1 day, glucose gavage 1.5 g/kg at t=0, blood glucose at 30 min, 24 hours post dose
Description: In vivo assays for activity and duration of action and pharmacokinetics can be done using known methods. For example, duration can be performed using an oral glucose tolerance test (OGTT) in which the drug is administered to the subject at a desired time point before the glucose is administered orally (to measure drug duration of action; OGTT DOA) and glucose blood levels are measured (e.g. readily done in mice). Activity and duration can also be measured using an intravenous glucose tolerance test (IVGTT) in which the drug is administered to the subject at a desired time point before the glucose is administered IV (IVGTT DOA) and blood glucose levels are measured (e.g. can readily be done in rats). Preferred engineered compounds have a desired effect on blood glucose of at least 24 hours duration after a single dose of drug, preferably at least 3 days, at least 4 days, at least 5 days, at least 6 days, and at least 1 week after the single dose of drug is given.
The effects on blood glucose prior to glucose gavage ([…]) and at 30 minutes post-glucose gavage were investigated 1 day post dose of peptide compound with varying amounts of Cmpd 15, with results shown in FIGS. 1A-1B. Bars represent mean±sd. Peptide was injected IP at t=−1 day. Glucose gavage (1.5 g/kg) given at t=0 to 4-hour fasted NIH/Swiss female mice. Blood glucose was measured with a OneTouch® Ultra® (LifeScan, Inc., a Johnson & Johnson Company, Milpitas, Calif.) * p<0.05 vs. vehicle control; ANOVA, Dunnett's test. This OGTT DOA indicates drug activity is present at least 24 hours after drug was administered. Exendin-4 (unconjugated) was ineffective in this assay when dosed at t-24 hours (1 day prior to the glucose assay), and even at higher doses.
The effects on blood glucose prior to gavage ([…]) and at 30 min were investigated 2 day post dose with varying amounts of Cmpd 15, with results shown in FIGS. 2A-2B. This OGTT DOA indicates drug activity is present at least 48 hours after drug was administered.
A comparison of the effects of Cmpds 15 and 8 on blood glucose was conducted, with results depicts in FIGS. 3A-3B. This OGTT DOA indicates drug activity is present at least 24 hours after drug was administered.
The effects of Cmpds 15, 8 and 10 on the change in blood glucose at 30 min (% pre-gavage) was investigated, as depicted in FIG. 7. In the figure, bars represent mean±s.d. Test compound was injected IP at t=−1 day. Glucose gavage (1.5 g/kg) given at t=0 to 4 hr fasted NIH/Swiss female mice. Blood glucose was measured as described herein. This OGTT DOA indicates drug activity is present at least 24 hours after drug was administered.
The effects of compounds disclosed herein on the change in blood glucose at 30 min (% pre-gavage) were investigated as described above. Test compound was injected IP at t=−1 day at 25 nmol/kg. Glucose gavage (1.5 g/kg) given at t=0 to 4 hr fasted NIH/Swiss female mice. Blood glucose was measured as described herein. This OGTT DOA indicates drug activity is present at least 24 hours after drug was administered. […] Exendin-4 (unconjugated) was ineffective in this assay when dosed at t-24 hours, and even at higher doses. […] Cmpd 22 with an albumin binding sequence the PAB protein from P. magnus had little if any […] (3%) in the above assay.

[4] = system: human kidney brush border membrane protein extracts; assay: Human kidney brush border membrane (KBBM) stability assay; format: in vitro ADME; details: hKBBM, 30 microM peptide, 37 degrees C, 5 hours; relative to positive control
Description: Relative stability of representative peptides in a human kidney brush border membrane (KBBM) assay was performed as follows. Human kidney brush border membrane protein extracts are rich in various peptidases. […] In a separate vial, peptide stock solution (300 microM in 50% acetonitrile in water) was prepared and 70 microL of this solution was added to the above hKBBMP solution. The solution was gently mixed by manual shaking so that the final peptide concentration is 30 microM. Then 100 microL of this solution was aliquoted into six different tubes and into one tube 200 microL of enzyme stop solution (50% acetonitrile in water with 0.1% TFA) was added. This tube was used for the measurement of the initial peptide concentration at time t=0 minute while all other 5 tubes were incubated at 37 degrees C. using a water bath. At intervals of 1, 2, 3, 4 and 5 hour, each tube was taken out and quenched with 200 microL of stop solution. Finally, all six tubes were centrifuged at 1800×g for 10 min to remove any precipitated proteins. The supernatant (10 microL) was transferred into an HPLC auto sampler, and by using selected ion count method AUC was measured. Each sample was run in triplicates and average AUC was calculated for data analysis. Sample analysis was done on Agilent HPLC with mass detector with an acetonitrile with 0.1% TFA gradient. […]

[5] = 25 and 250 nmol/kg IP twice each week for 28 days

For “HGEGTFTSDLSKQLEEEAVRLFIEWLKQGGPSKEIISTGGGGSASLAEAKVLANRELDKYGVSDFYKRLINKAKTVEGVEALKLHILAALP [Cmpd 15]”, the “Severity score for cytoplasmic vacuolation of renal cortical tubular epithelial cells” value [1] was 0, the “effect on body weight” value (ob/ob mice) was “significant body weight loss” and the “Percent Stable in Human Plasma” value [2] was 96.0%. The “effects compared to maximally efficacious dose of exendin-4 (7.2 nmol/kg/d CSI)” value (diabetic ob/ob mice; 25 nmol/kg biw, comparable equimolar dose) was “exceeded the glycemic and body weight loss effects of the maximally efficacious dose of exendin-4”, the “effects compared to maximally efficacious dose of exendin-4” value (diabetic ob/ob mice; 250 nmol/kg biw) was “significantly greater” and the “HbA1c lowering (% change from baseline)” value (diabetic ob/ob mice; [5]) was “significant HbA1c lowering”. For the same compound, the “body weight loss (% change from baseline)” value (diabetic ob/ob mice; [5]) was “significant body weight loss”, the “HbA1c lowering and body weight loss compared to liraglutide” value (diabetic ob/ob mice; equimolar dosing to liraglutide, data not shown) was “more effective than liraglutide” and the “glucose lowering compared to liraglutide” value (diabetic ob/ob mice; equimolar dosing, twice weekly (BIW), chronic exposure) was “superior to liraglutide”. The apparent half-life [3] was 54 h, the “blood glucose lowering activity after oral dosing” value (db/db mice; 240 nmol/kg peroral gavage, to 120 minutes, 2-hour fasted db/db mice) was “active when dosed orally” and the oral bioavailability (db/db mice; peroral gavage, 1 mg/kg) was “orally bioavailable”. The “% Glucose Lowering Compared to Vehicle” value (NIH/Swiss female mice) was −21%.

In the case of `CC[C@H](C)[C@H](NC(=O)[C@H](Cc1ccccc1)NC(=O)[C@H](CCC(=O)O)NC(=O)[C@H](CCCCN)NC(=O)[C@H](C)NC(=O)[C@H](C)NC(=O)[C@H](CCC(N)=O)NC(=O)CNC(=O)[C@H](CCC(=O)O)NC(=O)[C@H](CC(C)C)NC(=O)[C@H](Cc1ccc(O)cc1)NC(=O)[C@H](CO)NC(=O)[C@H](CO)NC(=O)[C@@H](NC(=O)[C@H](CC(=O)O)NC(=O)[C@H](CO)NC(=O)[C@@H](NC(=O)[C@H](Cc1ccccc1)NC(=O)[C@@H](NC(=O)CNC(=O)[C@H](CCC(=O)O)NC(=O)[C@H](C)NC(=O)[C@@H](N)Cc1c[nH]cn1)[C@@H](C)O)[C@@H](C)O)C(C)C)C(=O)N[C@@H](C)C(=O)N[C@@H](Cc1c[nH]c2ccccc12)C(=O)N[C@@H](CC(C)C)C(=O)N[C@H](C(=O)N[C@@H](CCCCN)C(=O)NCC(=O)N[C@@H](CCCNC(=N)N)C(N)=O)C(C)C` [GLP-1(7-36) amide, reference compound], the “Percent Stable in Human Plasma” value [2] is reported as 41.7% and the “Percent Stable” value [4] is reported as 16%.

For “HGEGTFTSDLSKQMEEEAVRLFIEWLKNTGGGGSASLAEAKVLANRELDKYGVSDFYKRLINKAKTVEGVEALKLHILAALP [Cmpd 10]”, the “% Glucose Lowering Compared to Vehicle” value (NIH/Swiss female mice) was −22%.

In the case of “HGEGTFTSDLSKQMEEEAVRLFIEWLKNGGSLAEAKVLANRELDKYGVSDFYKRLINKAKTVEGVEALKLHILAALP [Cmpd 32]”, the “glucose lowering activity when dosed 24 hours before the OGTT (in words)” value (NIH/Swiss female mice; dosed IP at t=-1 day) is reported as “no glucose lowering”.

For “HGEGTFTSDLSKQLEEEAVRLFIEWLKQGGPSKEIISTGGGGSGGGSGGGSGGGSASLAEAKVLANRELDKYGVSDFYKRLINKAKTVEGVEALKLHILAALP [Cmpd 8]”, the “% Glucose Lowering Compared to Vehicle” value (NIH/Swiss female mice) was −21%.

In the case of “HGEGTFTSDLSKQLEEEAVRLFIEWLKQGGPSKEIISGGSLAEAKVLANRELDKYGVSDFYKRLINKAKTVEGVEALKLHILAALP [Cmpd 33]”, the “% Glucose Lowering Compared to Vehicle” value (NIH/Swiss female mice) is reported as −19%.
